In assay [1] the target is T1, GLP-1R (Homo sapiens, UniProt P43220).
T1 construct: expressed in transfected cells; host or cells: HEK293 (HEK293-GLP-1R)
Description: In vitro cell activity, cAMP production in HEK293 cells expressing GLP-1R. The assay is classed as cell-based. In outline:
(§1)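 cAMP output read as 665/620 nm HTRF ratio after adding cAMP-d2 plus anti-cAMP cryptate and incubating 1 h at room temperature in the dark or overnight at 4 °C. Cells: HEK293 expressing human GLP-1R or GCGR, plated from a 4×10^5 cells/mL suspension. Four-parameter fit gives EC50.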

In assay [2] the target is T2, GCGR (Homo sapiens, UniProt P47871).
T2 construct: expressed in transfected cells; host or cells: HEK293 (HEK293-GCGR)
T2 sequence (P47871 26-477, species assumed): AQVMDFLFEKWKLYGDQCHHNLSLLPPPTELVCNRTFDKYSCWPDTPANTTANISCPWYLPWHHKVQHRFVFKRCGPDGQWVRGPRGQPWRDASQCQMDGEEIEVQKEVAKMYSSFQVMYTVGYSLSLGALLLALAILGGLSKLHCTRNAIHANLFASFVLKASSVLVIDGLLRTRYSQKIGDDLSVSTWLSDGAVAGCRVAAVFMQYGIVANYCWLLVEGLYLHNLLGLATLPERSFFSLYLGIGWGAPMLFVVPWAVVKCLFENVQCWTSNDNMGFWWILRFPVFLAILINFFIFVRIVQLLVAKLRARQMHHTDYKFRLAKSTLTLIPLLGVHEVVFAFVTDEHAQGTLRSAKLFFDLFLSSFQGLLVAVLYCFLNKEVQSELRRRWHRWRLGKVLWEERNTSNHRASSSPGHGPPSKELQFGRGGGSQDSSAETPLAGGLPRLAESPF
Put plainly: In vitro cell activity, cAMP production in HEK293 cells expressing GCGR. It counts as cell-based. In outline: as §1

For assay [3], the target named is T3, GIPR (Homo sapiens, UniProt P48546).
T3 construct: expressed in transfected cells; host or cells: HEK293 (HEK293-GIPR)
T3 sequence (P48546 22-466): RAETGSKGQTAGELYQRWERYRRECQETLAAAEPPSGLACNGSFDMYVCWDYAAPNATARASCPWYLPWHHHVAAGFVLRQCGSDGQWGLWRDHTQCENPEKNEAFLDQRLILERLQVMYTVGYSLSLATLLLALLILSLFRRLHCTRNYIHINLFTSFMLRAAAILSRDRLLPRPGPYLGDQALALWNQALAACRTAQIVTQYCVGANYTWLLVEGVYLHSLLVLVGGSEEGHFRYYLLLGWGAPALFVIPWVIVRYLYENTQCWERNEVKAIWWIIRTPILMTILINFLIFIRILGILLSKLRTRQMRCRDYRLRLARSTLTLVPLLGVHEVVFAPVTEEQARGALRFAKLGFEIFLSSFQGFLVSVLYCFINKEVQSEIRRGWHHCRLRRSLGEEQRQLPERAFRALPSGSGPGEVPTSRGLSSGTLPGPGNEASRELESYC
Description: In vitro cell activity, cAMP production in HEK293 cells expressing GIPR. The assay is classed as cell-based. In outline:
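HEK293 cells expressing human GIPR, thawed and diluted to 4×10^5 cells/mL, are stimulated with test compound. cAMP is measured by HTRF competition between cAMP-d2 and anti-cAMP cryptate. EC50 comes from a four-parameter nonlinear fit of signal ratio against concentration.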
(Changes in cAMP serve as a functional read-out for many G protein-coupled receptors.)

Assay [4] can be described thus: In vivo efficacy evaluation in db/db mouse model (blood glucose). The arrangement: species or system db/db mice. The method, then:
Blood glucose was tested before each administration.

Each structure is given as a SMILES string. Marks after values point to notes of the source that are not given here.

Data on one compound can be found in patent publication EP4596574A1, “GLP-1/GCG/GIP TRIPLE-RECEPTOR AGONIST AND USE THEREOF” (Sunshine Lake Pharma Co., Ltd., priority 2022, dated 2024).

T1 sequence (P43220 24-463, species assumed): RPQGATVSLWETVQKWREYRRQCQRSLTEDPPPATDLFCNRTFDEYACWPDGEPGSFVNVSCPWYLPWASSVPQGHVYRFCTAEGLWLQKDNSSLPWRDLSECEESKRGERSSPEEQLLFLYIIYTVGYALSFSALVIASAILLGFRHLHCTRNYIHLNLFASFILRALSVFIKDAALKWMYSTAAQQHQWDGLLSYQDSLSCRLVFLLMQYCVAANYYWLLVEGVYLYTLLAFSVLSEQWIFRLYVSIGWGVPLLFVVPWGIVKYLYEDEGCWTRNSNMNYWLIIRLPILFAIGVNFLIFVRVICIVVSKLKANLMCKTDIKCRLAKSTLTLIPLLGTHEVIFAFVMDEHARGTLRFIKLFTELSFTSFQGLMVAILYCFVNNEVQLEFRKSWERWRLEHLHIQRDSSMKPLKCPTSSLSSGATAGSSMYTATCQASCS

Take `CC[C@H](C)[C@H](NC(=O)[C@H](Cc1ccccc1)NC(=O)[C@H](C)NC(=O)[C@H](CCCNC(=N)N)NC(=O)[C@H](CCC(N)=O)NC(=O)[C@H](C)NC(=O)[C@H](CCCCNC(=O)COCCOCCNC(=O)CC[C@H](NC(=O)CCCCCCCCCCCCCCCCCCC(=O)O)C(=O)O)NC(=O)[C@H](CCC(=O)O)NC(=O)[C@H](CC(=O)O)NC(=O)[C@H](CC(C)C)NC(=O)[C@H](CC(C)C)NC(=O)[C@@H](NC(=O)[C@H](CO)NC(=O)[C@H](Cc1ccc(O)cc1)NC(=O)[C@H](CC(=O)O)NC(=O)[C@H](CO)NC(=O)[C@@H](NC(=O)[C@](C)(Cc1ccccc1F)NC(=O)[C@@H](NC(=O)CNC(=O)[C@H](CCC(N)=O)NC(=O)C(C)(C)NC(=O)[C@@H](N)Cc1ccc(O)cc1)[C@@H](C)O)[C@@H](C)O)[C@@H](C)CC)C(=O)N[C@@H](CCC(=O)O)C(=O)N[C@@H](Cc1ccc(O)cc1)C(=O)N[C@@H](CC(C)C)C(=O)N[C@@H](CC(C)C)C(=O)N[C@@H](CCC(=O)O)C(=O)NCC(=O)NCC(=O)N1CCC[C@H]1C(=O)N[C@@H](CO)C(=O)N[C@@H](CO)C(=O)NCC(=O)N[C@@H](C)C(=O)N1CCC[C@H]1C(=O)N1CCC[C@H]1C(=O)N1CCC[C@H]1C(=O)N[C@@H](CO)C(=O)O` [HEC-PT85]: the EC50 (in general, the concentration needed to bring the measured effect to its halfway point) in assay [1] turned out to be 0.255 nM; in assay [2], 0.602 nM; in assay [3], 0.237 nM. The “blood glucose after administration” value in assay [4] (db/db mice, 10 nmol/kg) was “significantly reduce blood glucose”. Moreover, the “Random blood glucose (mM) D0” value in assay [4] (db/db mice, 10 nmol/kg s.c. once every three days, D0 (before first dose)) was 26.2 ± 2.8 mM. In assay [4] (db/db mice, 10 nmol/kg s.c. once every three days, D3), the “Random blood glucose (mM) D3” value worked out at 11.8 ± 3.6 mM. Moreover, the “Random blood glucose (mM) D4” value in assay [4] (db/db mice, 10 nmol/kg s.c. once every three days, D4) is 17.6 ± 3.1 mM. Further, the “Random blood glucose (mM) D5” value in assay [4] (db/db mice, 10 nmol/kg s.c. once every three days, D5) came to 20.2 ± 5.5 mM. Also, the “Random blood glucose (mM) D6” value in assay [4] (db/db mice, 10 nmol/kg s.c. once every three days, D6) is 17.3 ± 3.4 mM. Besides, the “Random blood glucose (mM) D7” value in assay [4] (db/db mice, 10 nmol/kg s.c. once every three days, D7) is 21.3 ± 3.5 mM. Besides, the “Random blood glucose (mM) D10” value in assay [4] (db/db mice, 10 nmol/kg s.c. once every three days, D10) is 11.8 ± 3.8 mM. The “Random blood glucose (mM) D13” value in assay [4] (db/db mice, 10 nmol/kg s.c. once every three days, D13) was 14.7 ± 4.9 mM. For the same compound, the “Random blood glucose (mM) D16” value in assay [4] (db/db mice, 10 nmol/kg s.c. once every three days, D16) came out at 12.8 ± 3.9 mM. In addition, the “Random blood glucose (mM) D19” value in assay [4] (db/db mice, 10 nmol/kg s.c. once every three days, D19) amounted to 13.7 ± 2.5 mM. In addition, in assay [4] (db/db mice, 10 nmol/kg s.c. once every three days, D22), the “Random blood glucose (mM) D22” value was 17.2 ± 4.2 mM. Also, the “Random blood glucose (mM) D25” value in assay [4] (db/db mice, 10 nmol/kg s.c. once every three days, D25) is reported as 15.7±4.5^a mM. For the same compound, in assay [4] (db/db mice, 10 nmol/kg s.c., 6 h), the “Random blood glucose (mM) 6 h” value was determined as 15.3 ± 5.4 mM. Also, the “Random blood glucose (mM) 24 h” value in assay [4] (db/db mice, 10 nmol/kg s.c., 24 h) is 10.1 ± 3.7 mM. Besides, in assay [4] (db/db mice, 10 nmol/kg s.c., 48 h), the “Random blood glucose (mM) 48 h” value was 12.9 ± 4.2 mM. Further, the “time at which blood glucose levels reached the lowest level” value in assay [4] (db/db mice, 10 nmol/kg, after administration) is reported as “about 24 hours”. In assay [4] (db/db mice, long-term repeated administration), the “blood glucose lowering after long-term administration compared with LY3298176” value is on record as “not inferior to the positive control LY3298176”. In addition, the “blood glucose reducing effect after administration compared with LY3298176” value in assay [4] (db/db mice, same dose 10 nmol/kg) is “slightly better than the positive control LY3298176”. The “blood glucose level after long-term administration” value in assay [4] (type II diabetes model db/db mice) is listed as “significantly improve the blood glucose level”.
